Measured values: US10344330B2, “Glatiramer acetate response biomarker mRNA potency assay” (Mylan Inc., priority 2013, dated 2019)

B1: MBP: myelin basic protein, a negative control (protein, UniProt P02686 1-304, looked up)
Myelin basic protein: MGNHAGKRELNAEKASTNSETNRGESEKKRNLGELSRTTSEDNEVFGEADANQNNGTSSQDTAVTDSKRTADPKNAWQDAHPADPGSRPHLIRLFSRDAPGREDNTFKDRPSESDELQTIQEDSAATSESLDVMASQKRPSQRHGSKYLATASTMDHARHGFLPRHRDTGILDSIGRFFGGDRGAPKRGSGKDSHHPARTAHYGSLPQKSHGRTQDENPVVHFFKNIVTPRTPPPSQGKGRGLSLSRFSWGAEGQRPGFGYGGRASDYKSAHKGFKGVDAQGTLSKIFKLGGRDSRSGSPMARR

What was measured:
[1] = system: IL-10 secreted by LN cells; test: IL-10 secretion by GA-stimulated LN cells, MSD 9-plex ELISA (Example II); format: cell-based, mouse; conditions: for IL-10 secretion response ratio (treated cell medium to control DCCM1 medium): 21 hr
Experimental: Animals at 8 weeks of age were immunized by injection into four footpads using a 1 mL syringe with a 27-G, 1⁄2-inch needle. […] Ten days post-immunization, immunized animals were sacrificed via cervical dislocation. […] The LN cells were isolated by pressing the LN with the plunger end of a sterile syringe. […] Trypan blue exclusion method was used to determine the cell density of viable cells in the suspension. […] Cat. […] LN cells were plated into a 24-well tissue culture plate for drug stimulation. […] Cell debris was removed by centrifugation at ca. 200×g for 10 minutes at 4° C. Cytokines secreted by treated cells were determined on the day of collection by ELISA using mouse TH 1/TH 2 9-Plex Tissue Culture Kit (Meso Scale Discovery; Cat No. […]-2, Lot #: K0032839) which detects Th1 cytokines (IFN-γ, IL-2, IL-12, IL-1β, TNF-α, CXCL1) and Th2 cytokines (IL-4, IL-5 and IL-10). For IFN-γ, culture media also were assayed at 45 hours using mouse IFN-γ Tissue Culture Kit (Meso Scale Discovery; Cat No. […] For the positive control, 0.5 mL of LN cells (5×10^6 cells/well) were treated with 0.5 mL of ConA (5 μg/mL). For the negative control, 0.5 mL of LN cells (5×10^6 cells/well) were treated with 0.5 mL of MBP (20 μg/mL). The LN cells with mock stimulation (enriched DCCM1 medium) were used to monitor the background level of a cytokine. For the cytokine assays, calibration standards or samples were incubated in the MULTI-SPOT or the SINGLE-SPOT plate and each cytokine bound to its corresponding capture antibody. All test samples were run in duplicate. The amount of each cytokine on its distinct spot was quantified using a cytokine-specific detection antibody labeled with MSD SULFO-TAGTM reagent. Electrochemiluminescent signals from immobilized SULFO-TAGTM-labeled complexes on each spot from each well were captured by the MSD SECTOR Imager 6000, which produces a signal directly proportional to the amount of captured cytokine in a test sample. The levels of cytokines in test samples were derived by interpolation from calibration curves with calibration standards of known concentrations using reagents provided with the MSD kits. Kits were used according to the manufacturer's protocols. […] Data are expressed as a response ratio of cytokine concentration in treated cell medium to control DCCM1 medium.

[2] = system: mouse IL-5 mRNA in primary LN cells; test: Validation: mouse IL-5 mRNA by real-time PCR in LN cells of GA-immunized SJL/J mice (Example IV); format: cell-based; conditions: for induction of IL-5 mRNA: 20 μg/mL GA, 6 hours; for IL-5 mRNA Fold Change: normalized to GAPDH
Experimental: Three experiments were conducted using one batch of GA (Mylan GMA). The primary LN cells were stimulated by incubation with 6 concentrations (0.3 to 20 μg/mL) of the GA for 6 hours at 37° C. Total RNA was isolated from LN cells stimulated with GA or controls. cDNA was synthesized from the RNA and the mRNA levels of seven mouse cytokines, IL-2, IL-4, IL-5, IL-10, IL-13, interferon (IFN)-γ and tumor necrosis factor (TNF)-α, were quantitatively measured by a real-time PCR method.
Female SJL/J mice at 8-9 weeks of age were immunized by injection into four footpads using a 1 mL syringe with a 27-G, ½-inch needle. Each mouse received a total injection volume of 0.1 mL of GMA emulsified in CFA (about 10 μL into each of the front footpads and 40 μL into each of the hind footpads). Animals were immunized on Day 0. After injection, animals were placed back in their cages and housed ≤6 animals per cage.
Immunized animals were sacrificed by cervical dislocation on Day 10 following immunization. […] After centrifugation at about 200×g for 10 minutes at 4° C., the cell pellet was re-suspended in 40 mL of DCCM-1 medium for cell counting. A Trypan blue exclusion method was used to determine the cell density of viable cells in the suspension. After cell counting, the LN cells were suspended in enriched DCCM-1 medium at density of 7.5×10^6 cells/mL. LN cells (0.12 mL) were plated into each well of 96-well tissue culture plates.
Dilutions of GA (Mylan GMA) were prepared using enriched DCCM-1 medium as the diluent. GA dilutions (0.12 mL) were added in the assigned wells of 96-well tissue culture plates. The same volume of LN cells (0.12 mL) isolated from immunized animals was added to the assigned wells. A positive control and a negative control were always performed in the same assay by treating LN cells with 2.5 μg/mL ConA and 10 μg/mL MBP, respectively. The LN cells with mock stimulation protocols (enriched DCCM-1 medium) were used to monitor the background mRNA level of a cytokine. The plates were incubated at 37° C. in a humidified 5% CO2 incubator for 6 hr.
At the end of incubation time, culture medium from stimulated cells was removed by aspiration and the cells were lysed using Qiagen or Promega lysis buffer. The lysate was transferred to an RNeasy Mini column (Qiagen) or wells of the SV 96 Binding Plate (Promega) for RNA isolation and cDNA synthesis. All tested samples were run in triplicate.
The SV 96 Total RNA Isolation System (Promega; Cat. No. Z3505) was used for total RNA isolation. Assay procedures were carried out according to each manufacturer's protocol. RNA samples were stored at −70° C. until use. […] The assay procedure was carried out according to the manufacturer's protocol.
The plate was centrifuged at 2000 rpm for 2 minutes at 4° C. to spin down the contents and eliminate air bubbles. Samples were prepared and run in a 96-well plate using a Life Technologies Real-Time PCR system (previously Applied Biosystems; Model No. 7500) according to the manufacturer's recommendation. The mix for the reference gene was prepared in the same way using the reference gene primer.
A relative quantitation method was used to analyze changes in mIL-2, mIL-4, mIL-5, mIL-10, mIL-13, mIFN-γ and TNF-α expression in GA treated samples relative to the untreated control (Enriched DCCM-1 treated) samples using the following program:
Levels of mouse cytokine amplicons were normalized to an internal probe level (GAPDH) from the same samples. The following equations were used to calculate the relative increase in response to GA stimulation compared to the control sample (Enriched DCCM1 sample): […]

[3] = BALB/cByJ, immunized GA Intraplantar
[4] = BALB/cByJ, immunized GA Lower Limb
[5] = BALB/cByJ, immunized Mannitol Intraplantar
[6] = C57BL10J, immunized GA Intraplantar
[7] = C57BL10J, immunized GA Lower Limb
[8] = C57BL10J, immunized Mannitol Intraplantar
[9] = CD-1, immunized GA Intraplantar
[10] = CD-1, immunized Mannitol Intraplantar

Row | Molecule | IL-10 secretion, dose response to GA (in words) ([1]; BALB/cByJ cells and CD1 cells) | induction of IL-5 mRNA ([2]; SJL/J, Exp 1) | induction of IL-5 mRNA ([2]; SJL/J, Exp 2) | induction of IL-5 mRNA ([2]; SJL/J, Exp 3) | induction of IL-5 mRNA (in words) ([2]; SJL/J, different concentrations of GA vs unstimulated LN cells) | IL-10 secretion response ratio (treated cell medium to control DCCM1 medium) [1, 3] | IL-10 secretion response ratio (treated cell medium to control DCCM1 medium) [1, 4] | IL-10 secretion response ratio (treated cell medium to control DCCM1 medium) [1, 5] | IL-10 secretion response ratio (treated cell medium to control DCCM1 medium) [1, 6] | IL-10 secretion response ratio (treated cell medium to control DCCM1 medium) [1, 7] | IL-10 secretion response ratio (treated cell medium to control DCCM1 medium) [1, 8] | IL-10 secretion response ratio (treated cell medium to control DCCM1 medium) [1, 9] | IL-10 secretion response ratio (treated cell medium to control DCCM1 medium) ([1]; CD-1, immunized GA Lower Limb) | IL-10 secretion response ratio (treated cell medium to control DCCM1 medium) [1, 10] | IL-5 mRNA Fold Change ([2]; Experiment 1, 2.5 μg/mL) | IL-5 mRNA Fold Change ([2]; Experiment 2, 2.5 μg/mL) | IL-5 mRNA Fold Change ([2]; Experiment 3, 2.5 μg/mL) | IL-5 mRNA Fold Change ([2]; Experiment 1, 10 μg/mL) | IL-5 mRNA Fold Change ([2]; Experiment 2, 10 μg/mL) | IL-5 mRNA Fold Change ([2]; Experiment 3, 10 μg/mL)
1 | L-glutamic acid polymer with L-alanine, L-lysine and L-tyrosine, acetate (salt) [GA] | dose-dependent manner | 5.2 fold | 5.3 fold | 15.2 fold | moderate induction | – | – | – | – | – | – | – | – | – | – | – | – | – | – | –
2 | Concanavalin A [ConA, reference compound] | – | – | – | – | – | 23.65 | 18.32 | 21.86 | 1.62 | 1.50 | 1.04 | 13.70 | 8.64 | 10.96 | 22.4 fold | 11.3 fold | 31.0 fold | – | – | –
3 | B1 | – | – | – | – | – | 1.10 | 1.12 | 1.07 | 1.04 | 1.00 | 1.08 | 1.39 | 1.41 | 1.38 | – | – | – | 0.8 fold | 0.8 fold | 2.6 fold
